Target: T1, Uba1 (Homo sapiens, UniProt P22314)
T1 sequence (P22314 1-1058): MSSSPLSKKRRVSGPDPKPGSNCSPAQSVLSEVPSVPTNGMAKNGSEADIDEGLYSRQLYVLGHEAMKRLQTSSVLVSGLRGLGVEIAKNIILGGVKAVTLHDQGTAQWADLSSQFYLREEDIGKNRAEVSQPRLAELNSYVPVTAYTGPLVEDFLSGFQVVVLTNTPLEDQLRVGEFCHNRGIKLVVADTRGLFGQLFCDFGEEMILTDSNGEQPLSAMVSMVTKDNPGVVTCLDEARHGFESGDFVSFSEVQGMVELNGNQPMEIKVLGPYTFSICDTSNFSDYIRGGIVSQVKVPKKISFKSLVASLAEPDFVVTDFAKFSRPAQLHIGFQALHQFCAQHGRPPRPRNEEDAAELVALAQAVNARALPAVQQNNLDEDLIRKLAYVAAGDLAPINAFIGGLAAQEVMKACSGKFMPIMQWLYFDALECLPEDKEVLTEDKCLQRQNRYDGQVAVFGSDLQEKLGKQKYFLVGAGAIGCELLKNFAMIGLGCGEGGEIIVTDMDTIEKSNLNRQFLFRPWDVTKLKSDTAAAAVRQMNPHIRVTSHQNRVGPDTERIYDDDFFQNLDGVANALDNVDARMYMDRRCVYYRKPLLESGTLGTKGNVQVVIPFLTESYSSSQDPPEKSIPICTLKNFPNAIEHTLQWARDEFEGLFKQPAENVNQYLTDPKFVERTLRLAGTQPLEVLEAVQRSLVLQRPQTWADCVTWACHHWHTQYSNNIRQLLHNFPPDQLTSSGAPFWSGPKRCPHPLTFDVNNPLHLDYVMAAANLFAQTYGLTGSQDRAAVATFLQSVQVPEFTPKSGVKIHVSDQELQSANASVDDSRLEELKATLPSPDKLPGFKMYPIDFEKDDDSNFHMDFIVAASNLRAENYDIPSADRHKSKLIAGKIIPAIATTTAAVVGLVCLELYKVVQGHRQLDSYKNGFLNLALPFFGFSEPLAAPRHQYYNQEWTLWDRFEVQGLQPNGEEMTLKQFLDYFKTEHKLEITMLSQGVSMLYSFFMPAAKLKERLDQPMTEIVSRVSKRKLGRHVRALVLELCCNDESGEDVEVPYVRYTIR
Test: Peptide inhibitors of Ub-E1 thioester formation
Format: biochemical
Protocol: Peptides VYRFYGG and VYRFYGΔAla of varying concentrations (10, 50, 100, 200, 500, 700, 1000 μM) were incubated with 0.3 μM Uba1 in the presence of 1 mM ATP and 10 mM MgCl2 in TBS buffer (50 mM Tris, 150 mM NaCl, pH=7.5) for 15 min at room temperature. TAMRA-Ub (1 μM) was added to the reaction and samples were taken at two time points, respectively 15 sec and 15 min. The proteins were separated by SDS-PAGE and the TAMRA-Ub-E1 conjugates were visualized using a fluorescence scanner (λex=530 nm; λem=580 nm).

[1] = initial velocities measured at 15 seconds
[2] = reactions allowed to proceed for 15 min

Row | Substance | inhibitory potency against Uba1 activity relative to VYRFYGG (after 15 min incubation, quantified from gel scanning) | inhibition of (TAMRA-Ub)-E1 formation [1] | inhibition of (TAMRA-Ub)-E1 formation [2]
1 | VYRFYG-ΔAla | higher inhibitory potency against Uba1 activity | inhibitory effect | prolonged inhibition of the E1
2 | VYRFYGG [reference compound] |  | inhibitory effect | no detectable inhibition of E1 activity

— patent publication US20170327549A1, “Adenylation Enzyme Inhibitors” (Stichting Het Nederlands Kanker Instituut - antoni van …, priority 2014, published 2017)
